Test results from patent EP2386565A2, “Compounds and methods to inhibit or augment an inflammatory response” (Cambridge Enterprise Ltd., priority 1999, dated 2000).
Positions of bridges follow the written chain, without caps; N, C: chain ends. Non-standard residues stand in square brackets, D forms with d. Residues, ends and D or L forms follow the SMILES beside them.

How the values were obtained:
B cells = type: cell-based
[1] = system: lung cells of normal mice; assay: Cell number and cell type in the lungs of normal mice; type: in vivo
Description: To determine whether increasing doses of CRD-Leu4Ile11Cys13 peptide 3(3-12)[MCP-1] alters the cell number and type of cell within the lungs of normal mice, mice were injected intravenously, intravenously and intratracheally, or intratracheally alone with CRD-Leu4Ile11Cys13 peptide 3(3-12)[MCP-1]. Mice were sacrificed at 20-24 hours post injection. Lungs were collected for isolation of cells, which were subsequently counted and characterized by surface staining for CD3, CD4, CD8, B220, and Mac-1.

[2] = biological target: T1, 5-HT1a serotonin receptors (Homo sapiens, UniProt P08908); assay: Competition of 3H-8-OH-DPAT binding to membranes; conditions: 100 µM highest concentration tested
T1 construct: purchased RBI/Sigma S-160; host or cells: membranes
Description: For SHT1a serotonin receptors, membranes (S-160, RBI/Sigma) are diluted into binding buffer (50 mM Tris pH 7.4 10 mM MgCl2 and 0.5 mM EDTA, with ascorbate at 1 mg/ml added immediately before use), e.g., 10 µl of membranes in 500 µl assay volume (i.e., 1:50 dilution). Cold competitor or test competitor is then added, e.g., 5 µl of 100x stock solution such as 5 µl of 1 mM oxymetazoline. Radioligand (^3H-8-OH-DPAT, TRK850, Amersham, 250 µCi in 250 µl; 4.5 µM at 222 Ci/mmol) is then added. For competition studies, ligand is employed (e.g., a 100x stock (i.e., 150 nM) is prepared by diluting the commercial stock 1:30 in binding buffer). Control tubes are prepared which have radioligand but no membranes. The tubes are vortexed then spun briefly. The mixtures are incubated for 1 hour at 4°C. The mixtures are filtered through GF/C filters pre-soaked in polyethyleneimine (0.3% in MilliQ water). The tubes are washed with 2-3 ml of wash buffer and filtered. The filter is washed with 3 x 5 ml of wash buffer, and air dried. 4.5 ml of scintillant is added to the dried filter in a scintillation vial and the filter counted on a tritium channel.

[3] = system: MCP-1- and LPS-induced dermal inflammation; assay: Dermal inflammation model (intradermal MCP-1 / LPS); type: in vivo, rat; conditions: for MCP-1 induced recruitment of monocyte/macrophages in skin (in words): systemic treatment before intradermal MCP-1
Description: To assess the efficacy of an agent of the invention in the prevention of lipopolysaccharide (LPS)- and MCP-1-induced dermal inflammation in the rat, three different doses of CRD-Leu4Ile11Cys13peptide 3(3-12)[MCP-1] were administered. An inflammatory response was elicited by intradermal injection (ventral abdomen) of either 500 ng MCP-1 or 100 ng MCP-1 along with endotoxin-free phosphate-buffered saline vehicle (as a negative control) and bacterial lipopolysaccharide (LPS; as a positive control). Each substance was injected at a different site. The results obtained from animals were compared to CRD-Leu4Ile11Cys13 peptide 3(3-12)[MCP-1] treated, and PBS (diluent control) treated, animals. Thirty minutes prior to intradermal agonist administration, the animals received an intravenous loading dose (3, 30 or 300 mg) and a subcutaneous depot dose (0.1, 1 or 10 mg) (on dorsum) of the pan-chemokine inhibitor CRD-Leu4Ile11Cys13peptide 3(3-12)[MCP-1] (see, for example, Figure 12). Animals were sacrificed at 20-24 hours post injection. Serum and urine were collected. The intradermal sites of agonist injection were collected, bisected and the extent of the inflammatory response was assessed by histopathology and quantitative immunofluorescence (fixed and frozen) (for example, following MCP-1 injection, the number of monocyte/macrophages in the skin was determined using the anti-CD14 (MCA342 from Serotec; clone ED2) at 3 µg/ml overnight at 4°C. The second antibody was rat anti-mouse FITC (415-096-100 from Jackson ImmunoResearch) at 28 µg/ml for 6 hours at room temperature). In addition, toxicity of CRD-Leu4Ile11Cys13peptide 3(3-12)[MCP-1] was assessed by collection of the following tissue samples in 10% neutral buffered formalin for histologic analysis: lung, liver, kidney, spleen, thymus, heart, and antagonist (test agent) injection site.
Although MCP-1 is fairly specific as a monocyte/macrophage chemoattractant, dermal injection of LPS induces recruitment of a broader range of leukocytes, including T- and B-cells and neutrophils. Specific antibodies to rat B-cells (MCA 1432 from Serotec) were used at 10 µg/ml overnight at 4°C to determine whether CRD-Leu4Ile11Cys13 peptide 3(3-12)[MCP-1] affected the recruitment of this leukocyte subpopulation. Secondary antibody was anti-mouse FITC (415-096-100 from Jackson ImmunoResearch, as above).
(10 mg in 200 µl subcutaneous). Thirty minutes later, PBS, 50 ng LPS and 500 ng MCP-1 were injected into three separate sites on the ventral abdomen of each rat. Animals were sacrificed 24 hours later and the intradermal site was excised, and frozen in OCT embedding media. Five µm sections were collected from each rat intradermal site and stored at -20°C. The number of monocytes (anti-rat CD14, Serotec), T cells, neutrophils (anti-rat granulocytes, Harlan Seralab), B-lymphocytes (anti-rat B cells, Serotec), and MCP-1, IL-8, and TNF-α (anti-mouse TNF-α, R and D Systems) were measured. Eight test sections and two control sections were stained at each site for each animal through a distance of 2.5 mm. The median percentage area was determined for each animal and for each group using NIH image, as the largest variability of staining was between sections rather than in any one section.

T1 sequence (P08908 whole entry): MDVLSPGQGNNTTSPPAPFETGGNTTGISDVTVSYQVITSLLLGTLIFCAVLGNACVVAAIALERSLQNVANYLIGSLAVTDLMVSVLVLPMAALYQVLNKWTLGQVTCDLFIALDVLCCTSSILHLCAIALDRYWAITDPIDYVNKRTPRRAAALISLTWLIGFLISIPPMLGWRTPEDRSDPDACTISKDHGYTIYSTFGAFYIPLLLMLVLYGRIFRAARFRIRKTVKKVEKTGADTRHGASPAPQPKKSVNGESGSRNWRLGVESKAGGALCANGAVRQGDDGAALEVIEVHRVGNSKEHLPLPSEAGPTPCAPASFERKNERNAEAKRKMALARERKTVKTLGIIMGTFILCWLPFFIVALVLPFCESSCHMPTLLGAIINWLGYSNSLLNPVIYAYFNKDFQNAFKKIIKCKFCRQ

SMILES: CC[C@@H](C)[C@H]1NC(=O)[C@@H](CCC(N)=O)NC(=O)[C@H](N)CSSC[C@H](C(N)=O)NC(=O)[C@@H](CC(C)C)NC(=O)[C@@H](CC(=O)O)NC(=O)[C@H]2CCCN2C(=O)[C@@H](CCCCN)NC(=O)[C@@H](CCC(N)=O)NC(=O)[C@@H](CCCCN)NC(=O)[C@@H](Cc2c[nH]c3ccccc23)NC1=O (H-[dC][dQ][dI][dW][dK][dQ][dK][dP][dD][dL][dC]-NH2; disulfide 1-11)
- proliferation of B cells to tetanus toxoid (in words) (B cells): no effect
- percentages of CD3, CD4, and B220 cells in lung of normal mice (in words) ([1]; high dose, all routes of administration): significantly reduced
- total number of cells isolated from the lungs of normal mice (in words) ([1]; low dose (0.3 µg IV and/or 10 µg IT) compared to PBS): higher
- ED50 for competition of 8-OH-DPAT binding to 5-HT1a receptors [2]: >100 µM
- TNF-α, IL-8 and MCP-1 at the LPS intradermal site (in words) ([3]; 10 mg subcutaneous, 50 ng LPS): substantially reduced
- median percentage area stained for neutrophils, monocytes, CD4+ T lymphocytes and B-lymphocytes at the LPS site (in words) ([3]; 10 mg subcutaneous, 50 ng LPS): abolished
- recruitment of B-cells to the site of the LPS injection (in words) ([3]; rat, in vivo): substantially inhibited
- reduction in the number of monocyte/macrophages recruited in response to injected bacterial LPS ([3]; rat, in vivo): > 80%
- MCP-1 induced recruitment of monocyte/macrophages in skin (in words) [3]: completely abolished
- MCP-1 induced recruitment of monocyte/macrophages in skin (in words) ([3]; listed as CRD-Leu4Ile11Cys13peptide 3(3-12)): the inflammatory response is abolished
